Data reported in patent US11286268B1, “EIF4E-inhibiting compounds and methods” (EFFECTOR THERAPEUTICS, INC., priority 2019, dated 2022).
Where two headings read alike, the source gives them in different places.

Biological target: recombinant eIF4E (Homo sapiens (Human), UniProt P06730)
Assay: Fluorescence polarization competition assay for eIF4E binding potency
Procedure, shortened: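 IC50 values reflect 50% displacement of 20 nM EDA-m7GDP-ATTO-550 from 75 nM eIF4E, measured by fluorescence polarization after 30 min at room temperature. Buffer: 20 mM Tris pH 7.5, 100 mM NaCl, 1 mM DTT, 0.02% Tween-20; 1% DMSO.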

[1] = fluorescence polarization competition, 75 nM recombinant eIF4E, 20 nM EDA-m7GDP-ATTO-550, IC50 class, read-out: elF4E FP
[2] = inhibition of eIF4E/EDA-m7GDP-ATTO-550 binding by 50%, Table 4B calculated values, read-out: IC50

recombinant eIF4E, sequence (P06730 whole entry): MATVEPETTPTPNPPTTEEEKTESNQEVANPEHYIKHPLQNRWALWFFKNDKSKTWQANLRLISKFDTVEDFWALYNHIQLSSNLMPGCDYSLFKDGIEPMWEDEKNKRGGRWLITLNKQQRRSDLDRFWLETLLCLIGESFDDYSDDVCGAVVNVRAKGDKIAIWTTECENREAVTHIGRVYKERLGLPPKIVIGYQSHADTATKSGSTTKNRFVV

Structure (SMILES)	IC50 [1] [nM]	IC50 [2] [nM]
Cc1nc2cnc(C3CC3)c(C#N)c2c(=O)n1CCOc1ccc(Cl)cc1Cc1cc(C(=O)O)cs1 [compound 970]	50 to 1000	166
Cc1cc(-c2cc(Cl)ccc2OCCn2c(C)nc3cnc(N(C)CC(F)(F)F)c(C#N)c3c2=O)c2scc(C(=O)O)c2n1 [compound 971]	50 to 1000	57.8
Cc1cc(-c2cc(Cl)ccc2OCCn2c(C)nc3cnc(N(C)CC(F)F)c(C#N)c3c2=O)c2scc(C(=O)O)c2n1 [compound 973]	50 to 1000	85
Cc1cc(-c2cc(Cl)ccc2OCCn2c(C)nc3cc(C(F)(F)F)c(N4CCC(Cl)CC4)c(C#N)c3c2=O)c2scc(C(=O)O)c2n1 [compound 991]	< 50	12.1
Cc1cc(-c2cc(Cl)ccc2OCCn2c(C)nc3cc(C(F)(F)F)c(N4CCSCC4)c(C#N)c3c2=O)c2scc(C(=O)O)c2n1 [compound 992]	50 to 1000	56.1
Cc1cc(-c2cc(Cl)ccc2OCCn2c(C)nc3cnc(-c4ccc5ncsc5c4)c(C#N)c3c2=O)c2scc(C(=O)O)c2n1 [compound 993]	< 50	15.6
Cc1cc(-c2cc(Cl)ccc2OCCn2c(C)nc3cnc(C4CC4C(F)(F)F)c(C#N)c3c2=O)c2scc(C(=O)O)c2n1 (stereo not drawn) [compound 994]	< 50	23.4
Cc1cc(-c2cc(Cl)ccc2OCCn2c(C)nc3cc(C(F)(F)F)c(-c4nc(C(F)F)ccc4F)c(C#N)c3c2=O)c2scc(C(=O)O)c2n1 [compound 995]	< 50	15.7
Cc1cc(-c2cc(Cl)ccc2OCCn2c(C)nc3cc(C(F)(F)F)c(N(C)C)c(C#N)c3c2=O)c2scc(C(=O)O)c2n1 [compound 996]	< 50	31.6
Cc1cc(-c2cc(Cl)ccc2OCCn2c(C)nc3c(C)nc(-c4cc(Cl)ccc4F)c(C#N)c3c2=O)c2scc(C(=O)O)c2n1 [compound 997]	< 50	12.2
Cc1cc(-c2cc(Cl)ccc2OCCn2c(C)nc3c(C)nc(-c4cc(F)ccc4F)c(C#N)c3c2=O)c2scc(C(=O)O)c2n1 [compound 998]	< 50	45.1
Cc1cc(-c2cc(Cl)ccc2OCCn2c(C)nc3c(C)nc(-c4cc(F)ccc4Cl)c(C#N)c3c2=O)c2scc(C(=O)O)c2n1 [compound 999]	< 50	16.3
Cc1ccc(F)c(-c2ncc3cc(C)n(CCOc4ccc(Cl)cc4-c4cc(C)nc5c(C(=O)O)csc45)c(=O)c3c2C#N)n1 [compound 1000]	< 50	16.7
Cc1cc(-c2cc(Cl)ccc2OCCn2c(C)cc3cnc(-c4cc(F)cnc4C)c(C#N)c3c2=O)c2scc(C(=O)O)c2n1 [compound 1001]	< 50	31.2
Cc1cc(-c2cc(Cl)ccc2OCCn2c(C)cc3cnc(N(C)C)c(C#N)c3c2=O)c2scc(C(=O)O)c2n1 [compound 1002]	< 50	2.37
Cc1cc(-c2cc(Cl)ccc2OCCn2c(C)cc3cnc(N4CCC4)c(C#N)c3c2=O)c2scc(C(=O)O)c2n1 [compound 1003]	< 50	13.4
Cc1cc(-c2cc(Cl)ccc2OCCn2c(C)nc3cnc(O)c(C#N)c3c2=O)c2scc(C(=O)O)c2n1 [compound 1004]	< 50	22.5
Cc1cc(-c2cc(Cl)ccc2OCCn2c(C)nc3cn(C)c(=O)c(C#N)c3c2=O)c2scc(C(=O)O)c2n1 [compound 1005]	< 50	33.4
Cc1cc(-c2cc(Cl)ccc2OCCn2c(C)nc3cc(Cl)c(-c4ncco4)c(C#N)c3c2=O)c2scc(C(=O)O)c2n1 [compound 1006]	< 50	18.2
Cc1cc(-c2cc(Cl)ccc2OCCn2c(C)nc3cc(C(F)(F)F)c[n+]([O-])c3c2=O)c2scc(C(=O)O)c2n1 [compound 1007]	< 50	48.2
Cc1cc(-c2cc(Cl)ccc2OCCn2c(C)nc3c(-c4ccccc4)nc(N4CCC4)c(C#N)c3c2=O)c2scc(C(=O)O)c2n1 [compound 1008]	< 50	15.3
COC1CN(c2c(C(F)(F)F)cc3nc(C)n(CCOc4ccc(Cl)cc4-c4cc(C)nc5c(C(=O)O)csc45)c(=O)c3c2C#N)C1 [compound 1009]	< 50	6.23

Now from value to molecule:

IC50 [1] [nM]	IC50 [2] [nM]	Structure (SMILES)
< 50	5.56	Cc1cc(-c2cc(Cl)ccc2OCCn2c(C)nc3cc(C(F)(F)F)c(-c4cnc(C)c(C)n4)c(C#N)c3c2=O)c2scc(C(=O)O)c2n1 [compound 969]
< 50	9.77	Cc1cc(-c2cc(Cl)ccc2OCCn2c(C)nc3cnc(NCC(F)(F)F)c(C#N)c3c2=O)c2scc(C(=O)O)c2n1 [compound 972]
< 50	23.6	Cc1cc(-c2cc(Cl)ccc2OCCn2c(C)nc3cnc(NCC(F)F)c(C#N)c3c2=O)c2scc(C(=O)O)c2n1 [compound 974]
< 50	19	CON(C)c1ncc2nc(C)n(CCOc3ccc(Cl)cc3-c3cc(C)nc4c(C(=O)O)csc34)c(=O)c2c1C#N [compound 976]
< 50	14.4	Cc1cc(-c2cc(Cl)ccc2OCCn2c(C)nc3cnc(N4CCCC4=O)c(C#N)c3c2=O)c2scc(C(=O)O)c2n1 [compound 977]
< 50	20.7	Cc1cc(-c2cc(Cl)ccc2OCCn2c(C)nc3cnc(N(C)N(C)C)c(C#N)c3c2=O)c2scc(C(=O)O)c2n1 [compound 978]
< 50	9.48	Cc1cc(-c2cc(Cl)ccc2OCCn2c(C)nc3cnc(NN(C)C)c(C#N)c3c2=O)c2scc(C(=O)O)c2n1 [compound 979]
< 50	15.6	COC(=O)c1csc2c(-c3cc(Cl)ccc3C#CCn3c(C)nc4cnc(N(C)C5CCN(CC(C)(F)F)CC5)c(C#N)c4c3=O)ccnc12 [compound 980]
< 50	20.4	Cc1cc(-c2cc(Cl)ccc2OCCn2c(C)nc3cnc(N4CCc5ccccc54)c(C#N)c3c2=O)c2scc(C(=O)O)c2n1 [compound 982]
< 50	18.9	Cc1cc(-c2cc(Cl)ccc2OCCn2c(C)nc3cnc(-n4ccc5ccccc54)c(C#N)c3c2=O)c2scc(C(=O)O)c2n1 [compound 983]
< 50	11.5	Cc1cc(-c2cc(Cl)ccc2OCCn2c(C)nc3cnc(-n4cccn4)c(C#N)c3c2=O)c2scc(C(=O)O)c2n1 [compound 984]
< 50	6.69	CNc1ncc2nc(C)n(CCOc3ccc(Cl)cc3-c3cc(C)nc4c(C(=O)O)csc34)c(=O)c2c1C#N [compound 985]
< 50	16.9	Cc1cc(-c2cc(Cl)ccc2OCCn2c(C)nc3cnc(N(C)c4ccccc4)c(C#N)c3c2=O)c2scc(C(=O)O)c2n1 [compound 986]
< 50	13.6	Cc1cc(-c2cc(Cl)ccc2OCCn2c(C)nc3c(-c4ccccc4)nc(N(C)C)c(C#N)c3c2=O)c2scc(C(=O)O)c2n1 [compound 987]
< 50	21.9	COC(C)c1ncc2nc(C)n(CCOc3ccc(Cl)cc3-c3cc(C)nc4c(C(=O)O)csc34)c(=O)c2c1C#N (stereo not drawn) [compound 988]
< 50	19.8	C=C(c1ncc2nc(C)n(CCOc3ccc(Cl)cc3-c3cc(C)nc4c(C(=O)O)csc34)c(=O)c2c1C#N)C(F)(F)F [compound 989]
< 50	32.2	Cc1cc(-c2cc(Cl)ccc2OCCn2c(C)nc3cc(C(F)(F)F)c(-c4nccnc4C(F)(F)F)nc3c2=O)c2scc(C(=O)O)c2n1 [compound 990]
